IC50 and Ki data for 14 compounds are collected here from patent US11130769B2 (Prelude Therapeutics Incorporated, priority 2018, dated 2021).

The test system of one assay is H929 cells. Kind of assay: Cell viability assay (H929 10 FBS). Format: cell-based. Particulars: read-out: H929_10FBS IC50. The method, then:
Cell Viability Assay (H929 10 FBS)
Dispense 10 μL aliquot of prepared H929 cells (1:1 ratio of cells:Trypan Blue (#1450013, Bio-Rad)) onto cell counting slide (#145-0011, Bio-Rad) and obtain cell density and cell viability using cell counter (TC20, Bio-Rad). Remove appropriate volume of resuspended cells from culture flask to accommodate 4000 cells/well @ 10 μL/well. Transfer H929 cells to 50 mL conical (#430290, Corning). Spin down at 1000 rpm for 5 min using tabletop centrifuge (SPINCHRON 15, Beckman). Discard supernatant and resuspend cell pellet in modified RPMI 1640 (#10-040-CV, Corning) cell culture media containing 10% FBS (F2422-500 ML, Sigma), sodium pyruvate (100 mM) (#25-000-CL, Corning), HEPES buffer (1 M) (#25-060-CL, Corning) and glucose (200 g/L) (A24940-01, Gibco) to a cell density of 400,000 cells/mL. Dispense 10 μL of resuspended H929 cells per well in 384-well small volume TC treated plate (#784080, Greiner Bio-one) using standard cassette (#50950372, Thermo Scientific) on Multi-drop Combi (#5840310, Thermo Scientific) in laminar flow cabinet. Dispense compounds onto plates using digital liquid dispenser (D300E, Tecan). Incubate plates in humidified tissue culture incubator @ 37° C. for 24 hours. Add 10 μL of prepared CellTiTer-Glo® detection buffer (G7570, Promega) or ATPlite 1 Step detection reagent (#6016731, Perkin Elmer) to each well of 384-well plate using small tube cassette (#24073295, Thermo Scientific) on Combi multi drop, incubate @ RT for 30-60 min. Read plates with microplate reader (PheraStar, BMG Labtech) using 384 well luminescence mode.

For another assay, the target named is MCL-1 (Homo sapiens (Human), UniProt Q07820). Description: Cell free Mcl-1:Bim affinity assay (fluorescence polarization competition). Particulars: 15 nM MCL-1, 5 nM FITC-Bim, 1 hour at room temperature, read-out: BIM_Ki. Format: binding. The protocol: The binding affinity of each compound was measured via a fluorescence polarization competition assay, in which the compound competes for the same binding site with the ligand, and thus leads to a dose-dependent anisotropy reduction. The tracer ligand utilized was a fluorescein isothiocyanate labelled peptide (FITC-[…]) derived from Bim (GenScript).
The assay was carried out in black half-area 96-well NBS plate (Corning), containing 15 nM of MCL-1 (BPS Bioscience), 5 nM of FITC-Bim and 3-fold serial diluted test compounds in a total volume of 50 μL of assay buffer (20 mM HEPES, 50 mM NaCl, 0.002% Tween 20, 1 mM TCEP, and 1% DMSO). The reaction plate was incubated for 1 hour at room temperature. The change of anisotropy is measured with an Envision multimode plate reader (PerkinElmer) at emission wavelength 535 nm. Fluorescence polarization was calculated in mP unit and the percentage inhibition was calculated by % inhibition=100×(mPDMSO−mP)/(mPDMSO−mPPC), in which mPDMSO is the DMSO control, and mPpc is the positive control. IC50 values were determined from a 10-point dose response curve by fitting the percent inhibition against compound concentration using the GraphPad Prism software. The inhibition constant Ki was subsequently calculated according to the Nikolovska-Coleska's equation (Anal. Biochem., 2004, 332, 261),
[formula] • where [I]50 is the concentration of the free inhibitor at 50% inhibition, [L]50 is the concentration of the free labeled ligand at 50% inhibition, [P]0 is the concentration of the free protein at 0% inhibition, and Kd is the dissociation constant of the protein-ligand complex. See Table F. Caspase 3/7 Activity Assay

The mark [1] stands for this setting: Homo sapiens, NCI-H929, 24 hours.

Like-named read-outs stand apart in the source and are kept apart here.

Sequence of MCL-1 (Q07820 whole entry): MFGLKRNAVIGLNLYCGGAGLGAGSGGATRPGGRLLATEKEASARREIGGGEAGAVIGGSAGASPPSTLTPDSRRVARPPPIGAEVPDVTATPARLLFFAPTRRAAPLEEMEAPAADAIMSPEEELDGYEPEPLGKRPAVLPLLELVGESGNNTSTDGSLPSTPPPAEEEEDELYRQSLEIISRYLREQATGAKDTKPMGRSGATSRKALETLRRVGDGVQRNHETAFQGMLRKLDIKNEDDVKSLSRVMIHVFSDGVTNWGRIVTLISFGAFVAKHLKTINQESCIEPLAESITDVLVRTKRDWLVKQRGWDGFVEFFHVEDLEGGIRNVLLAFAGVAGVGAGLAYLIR

For `CO[C@@H]1/C=C/CN[C@H](C)C(=O)NS(=O)(=O)c2ccc3c(c2)N(C[C@@H]2CC[C@H]21)C[C@@]1(CCCc2cc(Cl)ccc21)CO3` [Example 121, (3R,6R,7R,8E,12R,22S)-6′-Chloro-7-methoxy-12-methyl-15,15-dioxo-spiro[20-oxa-15-thia-1,11,14-triazatetracyclo[14.7.2.03,6.019,24]pentacosa-8,16(25),17,19(24)-tetraene-22,1′-tetralin]-13-one], the IC50 in the assay on H929 cells (setting [1]) was greater than 1000 nM. Besides, the Ki at MCL-1 (class symbols) lay in the range of 1 to 100 nM.

`O=C(Cc1ccccc1)NS(=O)(=O)c1ccc2c(c1)N(CC1CCC1)CC1(CCCc3cc(Cl)ccc31)CO2` (centres unmarked) [Example 5, N-[6′-Chloro-5-(cyclobutylmethyl)spiro[2,4-dihydro-1,5-benzoxazepine-3,1′-tetralin]-7-yl]sulfonyl-2-phenyl-acetamide]: the IC50 with H929 cells (setting [1]) was greater than 1000 nM. Moreover, the Ki on MCL-1 (numeric values) was 37.3 nM.

In the case of `CN(C)C(=O)O[C@@H]1/C=C/COC2(CC2)C(=O)NS(=O)(=O)c2ccc3c(c2)N(C[C@@H]2CC[C@H]21)C[C@@]1(CCCc2cc(Cl)ccc21)CO3` [Example 39, [(3R,6R,7R,8E,22S)-6′-Chloro-12,12-ethylene-13,15,15-trioxo-spiro[11,20-dioxa-15-thia-1,14-diazatetracyclo[14.7.2.03,6.019,24]pentacosa-8,16,18,24-tetraene-22,1′-tetralin]-7-yl] N,N-dimethylcarbamate], the IC50 with H929 cells (setting [1]) was less than 1000 nM. Besides, on MCL-1 (class symbols), the Ki was less than 1 nM.

On to `CO[C@@H]1/C=C/CCC2(CCC2)C(=O)NS(=O)(=O)c2ccc3c(c2)N(C[C@@H]2CC[C@H]21)C[C@@]1(CCCc2cc(Cl)ccc21)CO3` [Example 86, (3R,6R,7R,8E,22S)-6′-Chloro-7-methoxy-12,12-(1,3-propylene)-15,15-dioxo-spiro[[20]oxa-15-thia-1,14-diazatetracyclo[14.7.2.03,6.019,24]pentacosa[8,16(25),17,19(24)]tetraene-22,1′-tetralin]-13-one], for which the IC50 with H929 cells (setting [1]) is greater than 1000 nM. Further, the Ki at MCL-1 (class symbols) was 1 to 100 nM.

Turning to `CO[C@@H]1/C=C/CCC2(CC2)C(=O)NS(=O)(=O)c2ccc3c(c2)N(C[C@@H]2CC[C@H]21)C[C@@]1(CCCc2cc(Cl)ccc21)CO3` [Example 69, (3R,6R,7R,8E,22S)-6′-Chloro-7-methoxy-12,12-ethylene-15,15-dioxo-spiro[[20]oxa[15]thia-1,14-diazatetracyclo[14.7.2.03,6.019,24]pentacosa[8,16(25),17,19(24)]tetraene-22,1′-tetralin]-13-one], the IC50 with H929 cells (24 hours) was greater than 1000 nM. Also, on MCL-1 (class symbols), the Ki fell in the range of 1 to 100 nM.

With `CC1(C)OC/C=C/[C@H](OCC(=O)N2CC(F)(F)C2)[C@@H]2CC[C@H]2CN2C[C@@]3(CCCc4cc(Cl)ccc43)COc3ccc(cc32)S(=O)(=O)NC1=O` [Example 278, (3R,6R,7S,8E,22S)-6′-Chloro-7-[2-(3,3-difluoroazetidin-1-yl)-2-oxo-ethoxy]-12,12-dimethyl-15,15-dioxo-spiro[11,20-dioxa-15-thia-1,14-diazatetracyclo[14.7.2.03,6.019,24]pentacosa-8,16,18,24-tetraene-22,1′-tetralin]-13-one], the IC50 in the assay on H929 cells (setting [1]) is less than 500 nM. Also, the Ki at MCL-1 (class symbols) was less than 1 nM.

As to `CCN1C/C=C/[C@H](OC(=O)NC2CCOCC2)[C@@H]2CC[C@H]2CN2C[C@@]3(CCCc4cc(Cl)ccc43)COc3ccc(cc32)S(=O)(=O)NC(=O)C1(C)C` [Example 220, [(3R,6R,7S,8E,22S)-6′-Chloro-11-ethyl-12,12-dimethyl-13,15,15-trioxo-spiro[20-oxa-15-thia-1,11,14-triazatetracyclo[14.7.2.03,6.019,24]pentacosa-8,16,18,24-tetraene-22,1′-tetralin]-7-yl]N-tetrahydropyran-4-ylcarbamate], the IC50 in the assay with H929 cells (setting [1]) is less than 500 nM. On MCL-1 (class symbols), the Ki was less than 1 nM.

For the compound `CC1(C)OC/C=C/[C@H](OC(=O)N2CCOCC2)[C@@H]2CC[C@H]2CN2C[C@@]3(CCCc4cc(Cl)ccc43)COc3ccc(cc32)S(=O)(=O)NC1=O` [Example 172, [(3R,6R,7S,8E,22S)-6′-Chloro-12,12-dimethyl-13,15,15-trioxo-spiro[11,20-dioxa-15-thia-1,14-diazatetracyclo[14.7.2.03,6.019,24]pentacosa-8,16,18,24-tetraene-22,1′-tetralin]-7-yl]morpholine-4-carboxylate], the 50% inhibitory concentration (IC50) in the assay on H929 cells (setting [1]) is less than 500 nM. In addition, at MCL-1 (class symbols), the Ki was less than 1 nM.

For the compound `CN1C/C=C/[C@H](O)[C@@H]2CC[C@H]2CN2C[C@@]3(CCCc4cc(Cl)ccc43)COc3ccc(cc32)S(=O)(=O)NC(=O)C1(C)C` [Example 43, (3R,6R,7S,8E,22S)-6′-Chloro-7-hydroxy-11,12,12-trimethyl-15,15-dioxo-spiro[20-oxa-15-thia-1,11,14-triazatetracyclo[14.7.2.03,6.019,24]pentacosa-8,16,18,24-tetraene-22,1′-tetralin]-13-one], the IC50 with H929 cells (setting [1]) was greater than 1000 nM. On MCL-1 (class symbols), the Ki fell in the range of 1 to 100 nM.

As to `CO[C@@H]1/C=C/C[C@H](C)[C@@H](CC(=O)N(C)C)C(=O)NS(=O)(=O)c2ccc3c(c2)N(C[C@@H]2CC[C@H]21)C[C@@]1(CCCc2cc(Cl)ccc21)CO3` [Example 91, 2-[(3R,6R,7R,8E,11S,12R,22S)-6′-Chloro-7-methoxy-11-methyl-13,15,15-trioxo-spiro[20-oxa-15-thia-1,14-diazatetracyclo[14.7.2.03,6.019,24]pentacosa-8,16,18,24-tetraene-22,1′-tetralin]-12-yl]-N,N-dimethyl-acetamide], the IC50 with H929 cells (setting [1]) is greater than 1000 nM. Also, the Ki on MCL-1 (class symbols) was in the range of 1 to 100 nM.

For `CO[C@@H]1/C=C/C[C@H](C)[C@@H](CC(=O)N2CCOCC2)C(=O)NS(=O)(=O)c2ccc3c(c2)N(C[C@@H]2CC[C@H]21)C[C@@]1(CCCc2cc(Cl)ccc21)CO3` [Example 92, (3R,6R,7R,8E,11S,12R,22S)-6′-Chloro-7-methoxy-11-methyl-12-(2-morpholino-2-oxo-ethyl)-15,15-dioxo-spiro[20-oxa-15-thia-1,14-diazatetracyclo[14.7.2.03,6.019,24]pentacosa-8,16,18,24-tetraene-22,1′-tetralin]-13-one], the IC50 in the assay with H929 cells (setting [1]) is less than 1000 nM. Moreover, the Ki on MCL-1 (class symbols) is less than 1 nM.

In the case of `CO[C@@H]1CCCCC(=O)NS(=O)(=O)c2ccc3c(c2)N(C[C@@H]2CC[C@H]21)C[C@@]1(CCCc2cc(Cl)ccc21)CO3` [Example 76, (3R,6R,7R,21S)-6′-Chloro-7-methoxy-14,14-dioxo-spiro[19-oxa-14-thia-1,13-diazatetracyclo[13.7.2.03,6.018,23]tetracosa-15,17,23-triene-21,1′-tetralin]-12-one], in the assay with H929 cells (setting [1]), the IC50 was greater than 1000 nM. The Ki on MCL-1 (class symbols) was 1 to 100 nM.

`O=C(NS(=O)(=O)c1ccc2c(c1)N(CC1CCC1)C[C@@]1(CCCc3cc(Cl)ccc31)CO2)OCc1ccccc1` (stereo in doubt) [Example 14, Benzyl N-[6′-chloro-5-(cyclobutylmethyl)spiro[2,4-dihydro-1,5-benzoxazepine-3,1′-tetralin]-7-yl]sulfonylcarbamate]: the Ki on MCL-1 (numeric values) is 222 nM.

For the compound `O=C(NS(=O)(=O)c1ccc2c(c1)N(CC1CCC1)CC1(CCCc3cc(Cl)ccc31)CO2)c1ccc(Cl)cc1` (centres unmarked) [Example 7, 4-Chloro-N-[6′-chloro-5-(cyclobutylmethyl)spiro[2,4-dihydro-1,5-benzoxazepine-3,1′-tetralin]-7-yl]sulfonyl-benzamide], the Ki at MCL-1 (numeric values) came out at 227 nM.
